In patent US20240208968A1, “ALPHA V BETA 6 AND ALPHA V BETA 1 INTEGRIN INHIBITORS AND USES THEREOF” (DiCE Molecules SV, Inc., priority 2021, published 2024):
Where a name gives a salt, the structure may show the parent alone.

Assays:
[1] = target: αvβ1 (Homo sapiens, UniProt P05556+P06756); assay: Solid Phase Integrin αvβ1 Assay; type: binding
Description: (§1) The compounds exemplified in this document were tested for their ability to inhibit αvβ1 and αvβ6 in below described solid phase integrin assays.
Solid Phase Integrin αvβ1 Assay
96-well microtiter plates (4 HBX Immulon; Thermo Fisher Scientific, Waltham, MA) were coated with 100 μL/well of 1 μg/mL recombinant TGFb1-LAP in TBS at 4° C., overnight. The coating solution was removed, and plates were blocked with 200 μL/well of blocking and binding buffer (2% BSA/TBST, 1 mM MnCl2) at room temperature for 1 hr. Blocking buffer was removed and 50 μL of binding buffer and testing compounds were added. 50 μL of diluted αvβ1 (0.2 ug/mL in binding buffer) was added to wells (100 μL/well total) for and plates incubated for 90 min at room temperature. Wells were washed thrice with washing buffer (TBS, 0.05% Tween, 1 mM MnCl2) and plates were incubated with 100 μL/well of a 1:12500 dilution of streptavidin-horseradish peroxidase conjugate (Thermo Fisher Scientific) in binding buffer for 20 min at room temperature. Bound protein was detected using the substrate TMB. The IC50 values for testing compounds were calculated by Levenberg-Marquardt four parameter fitting logistics.

[2] = target: αvβ6 (Homo sapiens, UniProt P06756+P18564); assay: Solid Phase Integrin αvβ6 Assay; type: binding
Description: as §1
Solid Phase Integrin αvβ6 Assay
96-well microtiter plates (4 HBX Immulon; Thermo Fisher Scientific, Waltham, MA) were coated with 100 μL/well of 1 μg/mL recombinant TGFb1-LAP in TBS at 4° C., overnight. The coating solution was removed, and plates were blocked with 200 μL/well of blocking and binding buffer (2% BSA/TBST, 1 mM MnCl2) at room temperature for 1 hr. Blocking buffer was removed and 50 uL of binding buffer and testing compounds were added. 50 μL of diluted αvβ6 (0.2 μg/mL in binding buffer) was added to wells (100 uL/well total) and plates incubated for 1 hr at room temperature. Wells were washed thrice with washing buffer (TBS, 0.05% Tween, 1 mM MnCl2) and plates were incubated with 100 μL/well of a 1:12500) dilution of streptavidin-horseradish peroxidase conjugate (Thermo Fisher Scientific) in binding buffer for 20 min at room temperature. Bound protein was detected using the substrate TMB. The IC50 values for testing compounds were calculated by Levenberg-Marquardt four parameter fitting logistics.

Chain of αvβ1 (P06756 31-992 limits assumed): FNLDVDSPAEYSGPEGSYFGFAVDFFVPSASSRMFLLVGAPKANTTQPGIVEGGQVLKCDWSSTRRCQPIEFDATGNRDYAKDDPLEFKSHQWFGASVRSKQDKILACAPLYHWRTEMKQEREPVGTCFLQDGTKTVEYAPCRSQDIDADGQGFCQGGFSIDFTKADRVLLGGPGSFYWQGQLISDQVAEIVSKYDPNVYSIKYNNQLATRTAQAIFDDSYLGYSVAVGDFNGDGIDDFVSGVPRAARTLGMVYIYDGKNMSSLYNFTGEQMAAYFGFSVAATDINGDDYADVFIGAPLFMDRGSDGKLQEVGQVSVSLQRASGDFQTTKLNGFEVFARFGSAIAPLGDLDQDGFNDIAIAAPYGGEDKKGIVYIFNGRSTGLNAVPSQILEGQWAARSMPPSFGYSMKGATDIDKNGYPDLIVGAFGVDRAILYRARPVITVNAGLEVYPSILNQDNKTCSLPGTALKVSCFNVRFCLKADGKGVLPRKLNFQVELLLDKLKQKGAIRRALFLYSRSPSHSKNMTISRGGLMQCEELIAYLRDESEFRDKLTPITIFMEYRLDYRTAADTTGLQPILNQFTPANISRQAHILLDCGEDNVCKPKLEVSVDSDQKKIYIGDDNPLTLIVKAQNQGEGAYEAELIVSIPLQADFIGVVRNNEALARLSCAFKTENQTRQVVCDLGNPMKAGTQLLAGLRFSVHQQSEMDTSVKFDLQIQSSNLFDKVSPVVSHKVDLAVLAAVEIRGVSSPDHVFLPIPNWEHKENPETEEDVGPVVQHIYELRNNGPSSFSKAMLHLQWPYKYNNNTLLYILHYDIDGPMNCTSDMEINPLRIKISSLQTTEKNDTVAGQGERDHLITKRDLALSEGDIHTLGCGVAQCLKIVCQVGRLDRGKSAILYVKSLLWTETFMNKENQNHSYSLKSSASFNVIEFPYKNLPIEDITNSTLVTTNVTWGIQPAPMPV
Chain of αvβ1 (P05556 21-728 limits assumed): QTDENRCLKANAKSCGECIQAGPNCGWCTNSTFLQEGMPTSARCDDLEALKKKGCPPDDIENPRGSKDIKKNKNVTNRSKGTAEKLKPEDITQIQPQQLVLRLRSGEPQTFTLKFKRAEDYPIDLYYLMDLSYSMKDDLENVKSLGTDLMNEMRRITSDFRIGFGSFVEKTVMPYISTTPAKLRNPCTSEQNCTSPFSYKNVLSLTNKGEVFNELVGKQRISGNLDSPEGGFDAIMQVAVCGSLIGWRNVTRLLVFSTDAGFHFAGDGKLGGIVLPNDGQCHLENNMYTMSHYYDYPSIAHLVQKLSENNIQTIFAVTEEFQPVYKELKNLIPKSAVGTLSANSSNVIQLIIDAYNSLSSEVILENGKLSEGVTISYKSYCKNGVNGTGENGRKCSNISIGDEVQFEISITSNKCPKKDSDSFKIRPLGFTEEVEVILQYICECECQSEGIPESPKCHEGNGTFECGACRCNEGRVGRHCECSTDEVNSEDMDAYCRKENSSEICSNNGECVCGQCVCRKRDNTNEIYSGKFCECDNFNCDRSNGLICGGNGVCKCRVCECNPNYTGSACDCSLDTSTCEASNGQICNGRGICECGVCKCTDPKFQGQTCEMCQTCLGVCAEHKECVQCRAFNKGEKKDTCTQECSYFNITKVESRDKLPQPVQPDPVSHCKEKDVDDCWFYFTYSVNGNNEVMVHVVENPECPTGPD
Chain of αvβ6 (P06756 31-992 limits assumed): as the sequence (P06756 31-992 limits assumed) above
Chain of αvβ6 (P18564 22-707 limits assumed): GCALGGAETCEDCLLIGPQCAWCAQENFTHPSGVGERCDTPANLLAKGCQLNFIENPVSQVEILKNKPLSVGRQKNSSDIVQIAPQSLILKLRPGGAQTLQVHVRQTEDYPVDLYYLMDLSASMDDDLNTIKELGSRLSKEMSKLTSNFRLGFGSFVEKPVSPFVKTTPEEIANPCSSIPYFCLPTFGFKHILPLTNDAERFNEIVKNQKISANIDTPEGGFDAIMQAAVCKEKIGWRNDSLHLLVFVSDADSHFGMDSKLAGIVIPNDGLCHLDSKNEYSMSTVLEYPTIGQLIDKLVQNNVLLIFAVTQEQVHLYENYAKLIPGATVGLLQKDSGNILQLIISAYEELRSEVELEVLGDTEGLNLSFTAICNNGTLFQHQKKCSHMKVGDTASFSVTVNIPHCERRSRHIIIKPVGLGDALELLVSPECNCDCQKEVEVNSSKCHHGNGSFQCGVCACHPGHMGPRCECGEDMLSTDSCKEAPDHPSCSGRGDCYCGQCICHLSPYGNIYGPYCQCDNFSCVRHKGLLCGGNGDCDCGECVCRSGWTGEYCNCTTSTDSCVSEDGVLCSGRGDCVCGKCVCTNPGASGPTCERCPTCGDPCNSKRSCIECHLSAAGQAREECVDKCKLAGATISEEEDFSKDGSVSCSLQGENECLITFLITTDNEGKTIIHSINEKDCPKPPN

Row | IC50 [1] | IC50 [2] | SMILES
1 | 100 to 1000 nM | < 100 nM | O=C(O)[C@@H](CCO[C@@H]1CCCN(CCCCc2ccc3c(n2)NCCC3)C1)Nc1ncnc2ccccc12 [Compound 405]
2 | < 100 nM | < 100 nM | CC1(C)CN(c2cc([C@H](CO[C@@H]3CCCN(CCCc4ccc5c(n4)NCCC5)C3)CC(=O)O)ccc2F)CCO1 [Compound 580]
3 | > 1000 nM | > 1000 nM | O=C(O)C[C@@H](CO[C@@H]1CCCN(CCc2ccc3c(n2)NCCC3)C1)c1ccccc1 [Compound 354]
4 | < 100 nM | < 100 nM | O=C(N[C@@H](CNC(=O)[C@@H]1CCCN(CCCc2ccc3c(n2)NCCC3)C1)C(=O)O)c1cc(Cl)ccc1Cl [Compound 364]
5 | > 1000 nM | > 1000 nM | O=C(O)[C@H](CO[C@@H]1CCCN(Cc2ccc3c(n2)NCCC3)C1)c1ccccc1 [Compound 396]
6 | > 1000 nM | 100 to 1000 nM | O=C(NC[C@H](C(=O)O)c1cc(F)cc(-c2cccc(F)c2)c1)[C@@H]1CCCN(CCCc2ccc3c(n2)NCCC3)C1 [Compound 629]

The next lines start with the molecule.

Row | SMILES | IC50 [1] | IC50 [2]
7 | O=C(O)CC(NC(=O)[C@@H]1CCCN(CCCc2ccc3c(n2)NCCC3)C1)c1ccc2c(c1)CCO2 (stereo partly drawn) [Compound 213, 3-(2,3-dihydrobenzofuran-5-yl)-3-((R)-1-(3-(5,6,7,8-tetrahydro-1,8-naphthyridin-2-yl)propyl)piperidine-3-carboxamido)propanoic acid hydrochloride] | < 100 nM | < 100 nM
8 | Cc1cc([C@H](CO[C@@H]2CCCN(CCCc3ccc4c(n3)NCCC4)C2)CC(=O)O)cc(N2CCOC(C)(C)C2)c1 [Compound 581] | 100 to 1000 nM | 100 to 1000 nM
9 | COc1ccc(C(C)C)c(C(CC(=O)O)NC(=O)[C@@H]2CCCN(CCCc3ccc4c(n3)NCCC4)C2)c1 (stereo partly drawn) [Compound 210, 3-(2-isopropyl-5-methoxyphenyl)-3-((R)-1-(3-(5,6,7,8-tetrahydro-1,8-naphthyridin-2-yl)propyl)piperidine-3-carboxamido)propanoic acid hydrochloride] | 100 to 1000 nM | 100 to 1000 nM
10 | O=C(O)C[C@H](CO[C@@H]1CCCN(Cc2ccc3c(n2)NCCC3)C1)c1ccccc1 [Compound 356] | 100 to 1000 nM | > 1000 nM
11 | O=C(NC[C@H](Nc1nc2ccccc2s1)C(=O)O)[C@@H]1CCCN(CCCc2ccc3c(n2)NCCC3)C1 [Compound 281, (2S)-2-(1,3-benzothiazol-2-ylamino)-3-[[(3R)-1-[3-(5,6,7,8-tetrahydro-1,8-naphthyridin-2-yl)propyl]piperidine-3-carbonyl]amino]propanoic acid] | < 100 nM | < 100 nM
12 | O=C(NC[C@H](C(=O)O)c1cccc(N2C[C@H]3CC[C@@H]2CO3)c1)[C@@H]1CCCN(CCCc2ccc3c(n2)NCCC3)C1 [Compound 565] | < 100 nM | < 100 nM
13 | O=C(O)C[C@H](CO[C@@H]1CCCN(CCCc2ccc3c(n2)NCCC3)C1)c1ccc(-c2ccccc2)cc1 [Compound 458] | < 100 nM | < 100 nM
14 | CO[C@H]1CCN(C(=O)[C@@H]2CCCC[C@H]2C(=O)N[C@@H](CNC(=O)[C@@H]2CCCN(CCCc3ccc4c(n3)NCCC4)C2)C(=O)O)C1 [Compound 268, (S)-2-((1R,2R)-2-((S)-3-methoxypyrrolidine-1-carbonyl)cyclohexane-1-carboxamido)-3-((R)-1-(3-(5,6,7,8-tetrahydro-1,8-naphthyridin-2-yl)propyl)piperidine-3-carboxamido)propanoic acid] | < 100 nM | < 100 nM
15 | O=C(O)[C@H](CO[C@@H]1CCCN(CCCc2ccc3c(n2)NCCC3)C1)Nc1ncnc2ccccc12 [Compound 388] | 100 to 1000 nM | < 100 nM
16 | Cc1cc(C(F)(F)F)nn1-c1cccc([C@H](CO[C@@H]2CCCN(CCCc3ccc4c(n3)NCCC4)C2)CC(=O)O)c1 [Compound 577] | < 100 nM | < 100 nM
17 | C[C@H]1CN(c2cccc([C@H](CNC(=O)[C@@H]3CCCN(CCCc4ccc5c(n4)NCCC5)C3)C(=O)O)c2)C[C@H](C)O1 [Compound 603] | < 100 nM | < 100 nM
